US11414379B2, “SPAK kinase inhibitors as neuroprotective agents” (United States Government as represented by the Department …, priority 2018, dated 2022)

Tests used:
[1] = system: KCC2 pThr1007; assay: Phosphorylation immunoblot in KCC2-transfected HEK293 cells; assay type: cell-based, human; parameters: key: “—” showed no inhibition of phosphorylation of SPAK/NKCC1/KC22; settings: concentration inhibiting phosphorylation; for KCC2 pThr1007 (μM) hypo: hypotonic low Cl- conditions; for KCC2 pThr1007 (μM) Iso: isotonic conditions
Protocol: (§1) HEK293 (human embryonic kidney 293) cells were cultured on 10-cm-diameter dishes in DMEM supplemented with 10% (v/v) foetal bovine serum, 2 mM L-glutamine, 100 U/ml penicillin and 0.1 mg/ml streptomycin. HEK293 cells were transfected with a mixture of 20 μl of 1 mg/ml polyethylenimine (Polysciences) and 5-10 μg of plasmid DNA as described previously (Durocher et al., 2002). 36 hours post-transfection cells were stimulated with either control isotonic or hypotonic medium for a period of 30 minutes. Cells were lysed in 0.3 mL of ice-cold lysis buffer/dish, lysates were clarified by centrifugation at 4° C. for 15 minutes at 26,000 g and the supernatant aliquots were frozen in liquid nitrogen and stored at −20° C. Protein concentrations were determined using the Bradford method. Cells were treated with the indicated concentrations of the SPAK/OSR1 inhibitors. […] Hypotonic low chloride buffer was 67.5 mM sodium-gluconate, 2.5 mM potassium-gluconate, 0.25 mM CaCl2), 0.25 mM MgCl2, 0.5 mM Na2HPO4, 0.5 mM Na2SO4 and 7.5 mM HEPES (pH 7.5).
(§2) The membranes were incubated for 30 min with TBST (Tris-buffered saline, 0.05% Tween-20) containing 5% (w/v) skim milk. The blots were then washed six times with TBST and incubated for 1 hour at room temperature with secondary HRP-conjugated antibodies diluted 5000-fold in 5% (w/v) skim milk in TBST. After repeating the washing steps, signals were detected with enhanced chemiluminescence reagent. Immunoblots were developed using a film automatic processor (SRX-101; Konica Minolta Medical) and films were scanned at 600 dpi (PowerLook 1000; UMAX). Figures were generated using Photoshop/Illustrator (Adobe). The densities of bands were measured with ImageJ. For phospho-antibody immunoprecipitation, KCC isoforms were immunoprecipitated from indicated cell extracts. 2 mg of the indicated clarified cell extract were mixed with 15 μg of the indicated phospho-specific KCC antibody conjugated to 15 μl of protein-G-Sepharose, in the added presence of […] of the dephosphorylated form of the phosphopeptide antigen, and incubated 2 hours at 4° C. with gentle shaking. Immunoprecipitates were washed three times with 1 mL of lysis buffer containing 0.15 M NaCl and twice with 1 ml of buffer A. Bound proteins were eluted with 1×LDS sample buffer.
(§3) HEK293 cells were transfected with a DNA construct encoding wild type N-terminally FLAG-tagged KCC2. 36 hrs post-transfection, cells were exposed 30 min to either control isotonic or hypotonic low [C1^−] conditions, then treated in the same conditions for an additional 30 min with the indicated inhibitors at the concentrations noted. Cell lysates were subjected to SDS-PAGE and Western blotting with the indicated antibodies. See FIG. 3 for Western blot quantitation.
(§4) Referring to FIG. 2, concentration-response experiments testing effects of Closantel analogs on phosphorylation of KCC2 Thr906/Thr1007 are shown. HEK293 cells were transfected with DNA construct encoding wild type N-terminally FLAG-tagged KCC2. 36 h post-transfection, cells were exposed 30 min to either control isotonic conditions or hypotonic low Cl^− conditions, then treated in the same conditions with the specified inhibitors (1b, 1c, 1f, 1d, 1h, and 1g, respectively) at the indicated concentrations for an additional 30 min. Lysates were subjected to SDS-PAGE and Western blotting with the indicated antibodies.
(§5) Referring to FIG. 3, HEK293 cells were transfected with the DNA construct encoding wild type N-terminally FLAG-tagged KCC2. 36 h post-transfection, cells were exposed 30 min to either control isotonic or hypotonic low Cl^− conditions, then treated in the same conditions with the specified inhibitors at the indicated concen-trations for an additional 30 min. Lysates were subjected to SDS-PAGE and Western blotting with the indicated antibodies. Closantel, STOCK1S-14279 and STOCK1S-50699 were used as reference compounds.

[2] = system: KCC2 pThr906; assay: as above; assay type: cell-based, human; parameters: key: “—” showed no inhibition of phosphorylation of SPAK/NKCC1/KC22; settings: concentration inhibiting phosphorylation; for KCC2 pThr906 (μM) hypo: hypotonic low Cl- conditions; for KCC2 pThr906 (μM) Iso: isotonic conditions
Protocol: as §1, §2, §3, §4, §5

[3] = system: SPAK pSer373; assay: as above; assay type: cell-based, human; parameters: key: “—” showed no inhibition of phosphorylation of SPAK/NKCC1/KC22; settings: concentration inhibiting phosphorylation; for SPAK pSer373 (μM) hypo: hypotonic low Cl- conditions; for SPAK pSer373 (μM) Iso: isotonic conditions
Protocol: as §1, §2, §3, §4, §5

[4] = system: NKCC1 pThr203; assay: as above; assay type: cell-based, human; parameters: key to NKCC1 pThr203 (μM) Iso / NKCC1 pThr203 (μM) hypo: “—” showed no inhibition of phosphorylation of SPAK/NKCC1/KC22; settings: concentration inhibiting phosphorylation; for NKCC1 pThr203 (μM) hypo: hypotonic low Cl- conditions; for NKCC1 pThr203 (μM) Iso: isotonic conditions
Protocol: as §1, §2, §3, §4, §5

[5] = molecular target: T1, GST-[T233E]SPAK kinase (Homo sapiens, UniProt Q9UEW8, T231E); assay: SPAK kinase assay employing CATCHtide; assay type: biochemical; settings: SPAK activity at different ATP concentrations
T1 construct: made in house; host or cells: E. coli
Protocol: SPAK kinase assays employing CATCHtide (cation chloride co-transporter peptide substrate). Peptide kinase assays, performed in triplicate, were set up in a total volume of 50 μl containing 0.5 μg GST-[T233E]SPAK kinase (˜5 nM at ˜10% purity) in 50 mM Tris/HCl, pH 7.5, 0.1 mM EGTA, 10 mM MgCl2, 300 μM CATCHtide ([…]; SEQ ID NO:1), […] [γ-32P]ATP (˜500 cpm/pmol) and the indicated concentrations of inhibitor dissolved in DMSO. After incubation for 30 min at 30° C., reactions were terminated by spotting 40 μl of the reaction mix onto P81 phosphocellulose paper and immersion in 50 mM phosphoric acid. The papers were washed extensively and the incorporation of [γ-^32P]ATP into CATCHtide was quantified by Cerenkov counting. IC^50 values were calculated with GraphPad Prism using non-linear regression analysis.
Referring to FIG. 7A, the activation of SPAK kinase by MO25α is shown. SPAK was assayed in the absence or presence of five-fold molar excess of wild-type MO25α.
Referring to FIG. 7B, kinetic data was determined for ZT-1a in the absence or presence of five-fold molar excess of wild-type MO25α. Data points are the average of three determinations, and the error bars are +/−SEM.

With Cc1cc(C(C#N)c2ccc(Cl)cc2)c(Cl)cc1NC(=O)c1cccc(O)c1O (stereo not shown) [Compound 1i, N-(5-chloro-4-((4-chlorophenyl)(cyano)methyl)-2-methylphenyl)-2,3-dihydroxy-benzamide] the “KCC2 pThr1007 (μM) hypo” value [1] was “—”, the “KCC2 pThr1007 (μM) Iso” value [1] was “—” and the “KCC2 pThr906 (μM) hypo” value [2] was “—”. The “KCC2 pThr906 (μM) Iso” value [2] was “—”, the “SPAK pSer373 (μM) hypo” value [3] was “—” and the “SPAK pSer373 (μM) Iso” value [3] was “—”. The “NKCC1 pThr203 (μM) hypo” value [4] was “—” and the “NKCC1 pThr203 (μM) Iso” value [4] was “—”.

For Cc1cc(C(C#N)c2ccc(Cl)cc2)c(Cl)cc1NC(=O)c1cc(F)ccc1O (stereo not shown) [Compound 1g], the “KCC2 pThr1007 (μM) hypo” value [1] was 3, 3 μM, the “KCC2 pThr1007 (μM) Iso” value [1] was 3, 3 μM and the “KCC2 pThr906 (μM) hypo” value [2] was 10, 10 μM. The “KCC2 pThr906 (μM) Iso” value [2] was 10, 10 μM, the “SPAK pSer373 (μM) hypo” value [3] was 3, 3 μM and the “SPAK pSer373 (μM) Iso” value [3] was 3, 3 μM. The “NKCC1 pThr203 (μM) hypo” value [4] was 3 μM and the “NKCC1 pThr203 (μM) Iso” value [4] was 1 μM.

Cc1cc(C(C#N)c2ccc(Cl)cc2)c(Cl)cc1NC(=O)c1ccccc1O (stereo not shown) [Compound 1b, N-(5-chloro-4-((4-chlorophenyl)(cyano)methyl)-2-methylphenyl)-2-hydroxy-benzamide] was tested, and the “KCC2 pThr1007 (μM) hypo” value [1] was 3, 3 μM, the “KCC2 pThr1007 (μM) Iso” value [1] was 3, 3 μM and the “KCC2 pThr906 (μM) hypo” value [2] was 10, 10 μM. For the same compound, the “KCC2 pThr906 (μM) Iso” value [2] was 10, 10 μM, the “SPAK pSer373 (μM) hypo” value [3] was 3, 3 μM and the “SPAK pSer373 (μM) Iso” value [3] was 3, 3 μM. For the same compound, the “NKCC1 pThr203 (μM) hypo” value [4] was 1 μM and the “NKCC1 pThr203 (μM) Iso” value [4] was 3 μM.

For Cc1cc(C(C#N)c2ccc(Cl)cc2)c(Cl)cc1NC(=O)c1cc(Cl)cc(Cl)c1O (stereo not shown) [Compound 1f, 3,5-dichloro-n-(5-chloro-4-((4-chlorophenyl)(cyano)methyl)-2-methylphenyl)-2-hydroxy-benzamide], the “KCC2 pThr1007 (μM) hypo” value [1] was 3, 3 μM, the “KCC2 pThr1007 (μM) Iso” value [1] was 3, 3 μM and the “KCC2 pThr906 (μM) hypo” value [2] was 10, 10 μM. For the same compound, the “KCC2 pThr906 (μM) Iso” value [2] was 10, 10 μM, the “SPAK pSer373 (μM) hypo” value [3] was 3, 3 μM and the “SPAK pSer373 (μM) Iso” value [3] was 3, 3 μM. For the same compound, the “NKCC1 pThr203 (μM) hypo” value [4] was 3 μM and the “NKCC1 pThr203 (μM) Iso” value [4] was 1 μM.

With CN[C@@H]1C[C@H]2O[C@@](C)([C@@H]1OC)n1c3ccccc3c3c4c(c5c6ccccc6n2c5c31)C(=O)NC4 [staurosporine, reference compound] the “change of IC50 values with increasing ATP concentrations” value [5] was “increased in a dose-proportional manner”.

For Cc1cc(C(C#N)c2ccc(Cl)cc2)c(Cl)cc1NC(=O)c1cccc(F)c1O (stereo not shown) [Compound 1h, N-(5-chloro-4-((4-chlorophenyl)(cyano)methyl)-2-methylphenyl)-3-fluoro-2-hydroxy-benzamide], the “KCC2 pThr1007 (μM) hypo” value [1] was 3, 3 μM, the “KCC2 pThr1007 (μM) Iso” value [1] was 3, 3 μM and the “KCC2 pThr906 (μM) hypo” value [2] was 10, 10 μM. The “KCC2 pThr906 (μM) Iso” value [2] was 10, 10 μM, the “SPAK pSer373 (μM) hypo” value [3] was 3, 3 μM and the “SPAK pSer373 (μM) Iso” value [3] was 3, 3 μM. For the same compound, the “NKCC1 pThr203 (μM) hypo” value [4] was 3 μM and the “NKCC1 pThr203 (μM) Iso” value [4] was 1 μM.

In the case of Cc1cc(C(C#N)c2ccc(Cl)cc2)c(Cl)cc1NC(=O)c1ccccc1N (stereo not shown) [Compound 1d, 2-amino-n-(5-chloro-4-((4-chlorophenyl)(cyano)methyl)-2-methylphenyl)-benzamide], the “KCC2 pThr1007 (μM) hypo” value [1] is reported as 3, 3 μM, the “KCC2 pThr1007 (μM) Iso” value [1] is reported as 3, 3 μM and the “KCC2 pThr906 (μM) hypo” value [2] is reported as 10, 10 μM. For the same compound, the “KCC2 pThr906 (μM) Iso” value [2] was 10, 10 μM, the “SPAK pSer373 (μM) hypo” value [3] was 3, 3 μM and the “SPAK pSer373 (μM) Iso” value [3] was 3, 3 μM. The “NKCC1 pThr203 (μM) hypo” value [4] was 3 μM and the “NKCC1 pThr203 (μM) Iso” value [4] was 1 μM.

COc1ccc(Cl)cc1C(=O)Nc1cc(Cl)c(C(C#N)c2ccc(Cl)cc2)cc1C (stereo not shown) [Compound 1j] was tested, and the “KCC2 pThr1007 (μM) hypo” value [1] was “—”, the “KCC2 pThr1007 (μM) Iso” value [1] was “—” and the “KCC2 pThr906 (μM) hypo” value [2] was “—”. The “KCC2 pThr906 (μM) Iso” value [2] was “—”, the “SPAK pSer373 (μM) hypo” value [3] was “—” and the “SPAK pSer373 (μM) Iso” value [3] was “—”. The “NKCC1 pThr203 (μM) hypo” value [4] was “—” and the “NKCC1 pThr203 (μM) Iso” value [4] was “—”.

For Cc1cc(C(C#N)c2ccc(Cl)cc2)c(Cl)cc1NC(=O)c1ccccc1[N+](=O)[O-] (stereo not shown) [Compound 1e, N-(5-chloro-4-((4-chlorophenyl)(cyano)methyl)-2-methylphenyl)-2-nitrobenzamide], the “KCC2 pThr1007 (μM) hypo” value [1] was “—”, the “KCC2 pThr1007 (μM) Iso” value [1] was “—” and the “KCC2 pThr906 (μM) hypo” value [2] was “—”. The “KCC2 pThr906 (μM) Iso” value [2] was “—”, the “SPAK pSer373 (μM) hypo” value [3] was “—” and the “SPAK pSer373 (μM) Iso” value [3] was “—”. For the same compound, the “NKCC1 pThr203 (μM) hypo” value [4] was “—” and the “NKCC1 pThr203 (μM) Iso” value [4] was “—”.

In the case of Cc1cc(C(C#N)c2ccc(Cl)cc2)c(Cl)cc1NC(=O)c1ccccc1S (stereo not shown) [Compound 1c, N-(5-chloro-4-((4-chlorophenyl)(cyano)methyl)-2-methylphenyl)-2-mercapto-benzamide], the “KCC2 pThr1007 (μM) hypo” value [1] is reported as 3, 3 μM, the “KCC2 pThr1007 (μM) Iso” value [1] is reported as 3, 3 μM and the “KCC2 pThr906 (μM) hypo” value [2] is reported as 10, 10 μM. For the same compound, the “KCC2 pThr906 (μM) Iso” value [2] was 10, 10 μM, the “SPAK pSer373 (μM) hypo” value [3] was 3, 3 μM and the “SPAK pSer373 (μM) Iso” value [3] was 3, 3 μM. For the same compound, the “NKCC1 pThr203 (μM) hypo” value [4] was 3 μM and the “NKCC1 pThr203 (μM) Iso” value [4] was 1 μM.
